Experimental data reported in the supplement of paper PMC8149375.

Tests used:
Details in all cases: treatment: drug + dasatinib (fixed dose, not stated); 5 days
TK-10 [1] = assay: minimum viability across doses, drug + dasatinib, relative to DMSO (fraction); higher = less growth inhibition
Description: (§1)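 Primary HTS combination arm: 8 RCC cell lines treated with 8 doses (up to 10 uM) of each library drug plus a fixed dose of dasatinib (dose not stated) for 5 days; viability read by CellTiter-Glo and normalised to DMSO. GI50 was fitted with XLfit, AUC is the area under the dose-response curve, and minimum viability is the lowest fraction of DMSO viability across doses.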

ACHN [2] = assay: as above
Description: as §1

CAKI-1 [3] = assay: as above
Description: as §1

SN12C [4] = assay: as above
Description: as §1

786-O [5] = assay: as above
Description: as §1

UO-31 [6] = assay: as above
Description: as §1

769-P [7] = assay: as above
Description: as §1

A498 [8] = assay: as above
Description: as §1

TK-10 [9] = assay: GI50 of drug in presence of dasatinib; higher = less potent
Description: as §1

ACHN [10] = assay: as above
Description: as §1

CAKI-1 [11] = assay: as above
Description: as §1

SN12C [12] = assay: as above
Description: as §1

786-O [13] = assay: as above
Description: as §1

UO-31 [14] = assay: as above
Description: as §1

769-P [15] = assay: as above
Description: as §1

A498 [16] = assay: as above
Description: as §1

TK-10 [17] = assay: AUC of dose-response viability curve, drug + dasatinib, normalised to DMSO (arbitrary (AUC of normalised viability)); higher = less growth inhibition
Description: as §1

ACHN [18] = assay: as above
Description: as §1

CAKI-1 [19] = assay: as above
Description: as §1

SN12C [20] = assay: as above
Description: as §1

786-O [21] = assay: as above
Description: as §1

UO-31 [22] = assay: as above
Description: as §1

769-P [23] = assay: as above
Description: as §1

A498 [24] = assay: as above
Description: as §1

Row | SMILES | minimum viability across doses (TK-10 [1]) | minimum viability across doses (ACHN [2]) | minimum viability across doses (CAKI-1 [3]) | minimum viability across doses (SN12C [4]) | minimum viability across doses (786-O [5]) | minimum viability across doses (UO-31 [6]) | minimum viability across doses (769-P [7]) | minimum viability across doses (A498 [8]) | GI50 of drug (TK-10 [9]) | GI50 of drug (ACHN [10]) | GI50 of drug (CAKI-1 [11]) | GI50 of drug (SN12C [12]) | GI50 of drug (786-O [13]) | GI50 of drug (UO-31 [14]) | GI50 of drug (769-P [15]) | GI50 of drug (A498 [16]) | AUC of dose-response viability curve (TK-10 [17]) | AUC of dose-response viability curve (ACHN [18]) | AUC of dose-response viability curve (CAKI-1 [19]) | AUC of dose-response viability curve (SN12C [20]) | AUC of dose-response viability curve (786-O [21]) | AUC of dose-response viability curve (UO-31 [22]) | AUC of dose-response viability curve (769-P [23]) | AUC of dose-response viability curve (A498 [24])
1 | CC1(C)CCC(CN2CCN(c3ccc(C(=O)NS(=O)(=O)c4ccc(NCC5CCOCC5)c([N+](=O)[O-])c4)c(Oc4cnc5[nH]ccc5c4)c3)CC2)=C(c2ccc(Cl)cc2)C1 [ABT-199 (GDC-0199 )] + Cc1nc(Nc2ncc(C(=O)Nc3c(C)cccc3Cl)s2)cc(N2CCN(CCO)CC2)n1 [dasatinib] | 0.61 | 0.542 | 0.592 | 0.68 | 0.586 | 1 | 0.692 | 0.899 | > 10000 nM | > 10000 nM | > 10000 nM | > 10000 nM | > 10000 nM | > 10000 nM | > 10000 nM | > 10000 nM | 2.39 | 2.01 | 2.29 | 2.51 | 2.43 | 3.9 | 2.58 | 3.56
2 | CC1(C)CCC(c2ccc(Cl)cc2)=C(CN2CCN(c3ccc(C(=O)NS(=O)(=O)c4ccc(N[C@H](CCN5CCOCC5)CSc5ccccc5)c(S(=O)(=O)C(F)(F)F)c4)cc3)CC2)C1 [ABT-263 (Navitoclax)] + Cc1nc(Nc2ncc(C(=O)Nc3c(C)cccc3Cl)s2)cc(N2CCN(CCO)CC2)n1 [dasatinib] | 0.0882 | 0.0781 | 0.555 | 0.502 | 0.00344 | 0.00471 | 0.024 | 0.608 | 1080 nM | 1060 nM | > 10000 nM | > 10000 nM | 136 nM | 400 nM | 768 nM | > 10000 nM | 2.03 | 1.9 | 2.36 | 2.48 | 1.46 | 2 | 1.92 | 3.01
3 | CN(C)CC[C@H](CSc1ccccc1)Nc1ccc(S(=O)(=O)NC(=O)c2ccc(N3CCN(Cc4ccccc4-c4ccc(Cl)cc4)CC3)cc2)cc1[N+](=O)[O-] [ABT-737] + Cc1nc(Nc2ncc(C(=O)Nc3c(C)cccc3Cl)s2)cc(N2CCN(CCO)CC2)n1 [dasatinib] | 0.144 | 0.23 | 0.65 | 0.515 | 0.00111 | 0.00776 | 0.0505 | 0.171 | 3300 nM | 2560 nM | > 10000 nM | > 10000 nM | 469 nM | 3310 nM | 2140 nM | 5920 nM | 2.24 | 1.9 | 2.41 | 2.58 | 1.74 | 3.71 | 2.31 | 3.1
4 | CCN1CCN(Cc2ccc(-c3cc4c(N[C@H](C)c5ccccc5)ncnc4[nH]3)cc2)CC1 [AEE788 (NVP-AEE788)] + Cc1nc(Nc2ncc(C(=O)Nc3c(C)cccc3Cl)s2)cc(N2CCN(CCO)CC2)n1 [dasatinib] | 0.0139 | 0.0466 | 0.0223 | 0.218 | 0.0446 | 0.00751 | 0.0653 | 0.258 | 305 nM | 13.7 nM | 1770 nM | 2100 nM | 4450 nM | 1790 nM | 298 nM | 5830 nM | 1.92 | 1.19 | 2 | 2.16 | 2.38 | 2.92 | 1.81 | 2.9
5 | N#C/C(=C\c1ccc(O)c(O)c1)C(=O)NCc1ccccc1 [AG-490] + Cc1nc(Nc2ncc(C(=O)Nc3c(C)cccc3Cl)s2)cc(N2CCN(CCO)CC2)n1 [dasatinib] | 0.544 | 0.179 | 0.667 | 0.681 | 0.355 | 0.8 | 0.488 | 0.887 | > 10000 nM | 2330 nM | > 10000 nM | > 10000 nM | 2470 nM | > 10000 nM | 8560 nM | > 10000 nM | 2.62 | 1.98 | 2.43 | 2.49 | 2.36 | 3.44 | 2.42 | 3.3
6 | CC(C)(C)c1cc(C=C(C#N)C#N)cc(Br)c1O [AG-1024] + Cc1nc(Nc2ncc(C(=O)Nc3c(C)cccc3Cl)s2)cc(N2CCN(CCO)CC2)n1 [dasatinib] | 0.698 | 0.515 | 0.57 | 0.687 | 0.601 | 1.06 | 0.586 | 0.971 | > 10000 nM | > 10000 nM | > 10000 nM | > 10000 nM | > 10000 nM | > 10000 nM | > 10000 nM | > 10000 nM | 2.59 | 2.02 | 2.24 | 2.55 | 2.42 | 4.02 | 2.38 | 3.66
7 | COc1cc2ncnc(Nc3cccc(Cl)c3)c2cc1OC [AG-1478 (Tyrphostin AG-1478)] + Cc1nc(Nc2ncc(C(=O)Nc3c(C)cccc3Cl)s2)cc(N2CCN(CCO)CC2)n1 [dasatinib] | 0.363 | 0.236 | 0.451 | 0.646 | 0.284 | 0.586 | 0.3 | 0.961 | 726 nM | 20.9 nM | 7730 nM | > 10000 nM | 37 nM | > 10000 nM | 107 nM | > 10000 nM | 1.93 | 1.39 | 2.2 | 2.37 | 1.84 | 3.65 | 1.67 | 3.95
8 | COc1ccc2c(Oc3ccc(NC(=O)c4c(C)n(CC(C)(C)O)n(-c5ccccc5)c4=O)nc3)ccnc2c1 [AMG458] + Cc1nc(Nc2ncc(C(=O)Nc3c(C)cccc3Cl)s2)cc(N2CCN(CCO)CC2)n1 [dasatinib] | 0.392 | 0.152 | 0.085 | 0.396 | 0.195 | 0.0124 | 0.421 | 0.771 | 5300 nM | 1000 nM | 893 nM | 1730 nM | 4000 nM | 4300 nM | 3380 nM | > 10000 nM | 2.39 | 1.89 | 1.92 | 2.06 | 2.08 | 3.35 | 2.27 | 3.38
9 | Cc1csc(-c2nnc(Nc3ccc(Oc4ncccc4-c4ccnc(N)n4)cc3)c3ccccc23)c1 [AMG 900] + Cc1nc(Nc2ncc(C(=O)Nc3c(C)cccc3Cl)s2)cc(N2CCN(CCO)CC2)n1 [dasatinib] | 0.459 | 0.186 | 0.286 | 0.319 | 0.117 | 0.604 | 0.211 | 0.562 | 6460 nM | 8.54 nM | 15.4 nM | 383 nM | 7.2 nM | > 10000 nM | 36.1 nM | > 10000 nM | 2.2 | 1.25 | 1.32 | 1.93 | 0.863 | 4.1 | 1.44 | 3.08
10 | COc1ccc2c(OCc3nnc4ccc(-c5ccccc5)nn34)ccnc2c1 [AMG-208] + Cc1nc(Nc2ncc(C(=O)Nc3c(C)cccc3Cl)s2)cc(N2CCN(CCO)CC2)n1 [dasatinib] | 0.642 | 0.544 | 0.613 | 0.688 | 0.68 | 0.987 | 0.634 | 0.805 | > 10000 nM | > 10000 nM | > 10000 nM | > 10000 nM | > 10000 nM | > 10000 nM | > 10000 nM | > 10000 nM | 2.54 | 2.07 | 2.24 | 2.52 | 2.6 | 3.91 | 2.4 | 3.32
11 | O=C1NC(=O)[C@@H](c2cn3c4c(cccc24)CCC3)[C@@H]1c1c[nH]c2ccccc12 [ARQ 197 (Tivantinib)] + Cc1nc(Nc2ncc(C(=O)Nc3c(C)cccc3Cl)s2)cc(N2CCN(CCO)CC2)n1 [dasatinib] | 0.298 | 0.147 | 0.0929 | 0.181 | 0.00404 | 0.03 | 0.0843 | 0.133 | 1460 nM | 367 nM | 178 nM | 1870 nM | 191 nM | 1980 nM | 509 nM | 974 nM | 2.11 | 1.73 | 1.56 | 2.01 | 1.42 | 2.97 | 1.87 | 2.42
12 | C=CC(=O)Nc1ccc2ncnc(Nc3ccc(OCc4cccc(F)c4)c(Cl)c3)c2c1.Cc1ccc(S(=O)(=O)O)cc1 [AST-1306] + Cc1nc(Nc2ncc(C(=O)Nc3c(C)cccc3Cl)s2)cc(N2CCN(CCO)CC2)n1 [dasatinib] | 0.0976 | 0.138 | 0.00665 | 0.0534 | 0.0714 | 0.06 | 0.0288 | 0.495 | 406 nM | 84.7 nM | 1680 nM | 5350 nM | 1110 nM | 3170 nM | 321 nM | 9990 nM | 2.01 | 1.62 | 2.04 | 2.22 | 1.99 | 3.51 | 1.82 | 3.44
13 | Cc1cc2c(C(C)C)c(O)c(O)c(C=O)c2c(O)c1-c1c(C)cc2c(C(C)C)c(O)c(O)c(C=O)c2c1O [AT101] + Cc1nc(Nc2ncc(C(=O)Nc3c(C)cccc3Cl)s2)cc(N2CCN(CCO)CC2)n1 [dasatinib] | 0.517 | 0.133 | 0.106 | 0.667 | 0.265 | 0.947 | 0.636 | 0.835 | > 10000 nM | 1850 nM | 3350 nM | > 10000 nM | > 10000 nM | > 10000 nM | > 10000 nM | > 10000 nM | 2.33 | 1.84 | 2.15 | 2.62 | 2.18 | 3.9 | 2.6 | 3.27
